Source: US10988459B2 (priority 2015, dated 2021)
Several values for one entry are separate records, joined by “and”; a condition that tells them apart may be missing. Identical values can stand only once.

These molecules were tested against human RIP1 kinase domain (2-375) (Homo sapiens (Human), UniProt Q13546) (assay: biochemical). Settings: Ki.
Assay type: biochemical
Outline: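 Ki^app comes from Morrison tight-binding fits of fractional activity versus compound concentration. Activity was read as ADP production, via tracer displacement lowering fluorescence polarization (633 nm laser). Conditions: 2 h, 50 nM insect-cell-expressed enzyme, 50 uM ATP, 30 mM MgCl2, 1 mM DTT, 0.5% DMSO, pH 7.5 Hepes.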

human RIP1 kinase domain (2-375), sequence (Q13546 2-375): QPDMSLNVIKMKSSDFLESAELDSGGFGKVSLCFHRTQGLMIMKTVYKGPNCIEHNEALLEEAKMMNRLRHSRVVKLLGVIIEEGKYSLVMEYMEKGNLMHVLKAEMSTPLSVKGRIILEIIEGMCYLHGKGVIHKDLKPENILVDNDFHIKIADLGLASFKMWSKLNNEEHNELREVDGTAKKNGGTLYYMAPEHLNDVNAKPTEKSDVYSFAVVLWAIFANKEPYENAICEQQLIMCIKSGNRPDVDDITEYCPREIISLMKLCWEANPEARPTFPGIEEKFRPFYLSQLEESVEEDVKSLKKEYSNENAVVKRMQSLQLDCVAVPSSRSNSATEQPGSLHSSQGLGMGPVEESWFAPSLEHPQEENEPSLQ

| Ki | Structure (SMILES) |
| --- | --- |
| 39 nM | CN1C(=O)[C@@H](NC(=O)c2ncc3cnn(C4CCOCC4)c3n2)COc2ccccc21 [Example 558, N-[(3S)-5-methyl-4-oxo-2,3-dihydro-1,5-benzoxazepin-3-yl]-1-tetrahydropyran-4-yl-pyrazolo[3,4-d]pyrimidine-6-carboxamide] |

Same assay, conditions: tight-binding apparent inhibition constant; human RIP1 kinase domain (2-375) 50 nM, 50 uM ATP, 2 hours; read-out: Ki

| Structure (SMILES) | Ki |
| --- | --- |
| Cc1cc2n(n1)CC[C@H](NC(=O)c1ncc3cnn(C4CCOCC4)c3n1)C(=O)N2C [Example 559, N-[(6S)-2,4-dimethyl-5-oxo-7,8-dihydro-6H-pyrazolo[1,5-a][1,3]diazepin-6-yl]-1-tetrahydropyran-4-yl-pyrazolo[3,4-d]pyrimidine-6-carboxamide] | 570 nM |
| Cc1cc2n(n1)CC[C@H](NC(=O)c1ncn(CC3(C)CCC3)n1)C(=O)N2C [Example 560, 1-[(1-methylcyclobutyl)methyl]-N-(6S)-2,4-dimethyl-5-oxo-7,8-dihydro-6H-pyrazolo[1,5-a][1,3]diazepin-6-yl-1,2,4-triazole-3-carboxamide] | 140 nM |
| CN1C(=O)[C@@H](NC(=O)c2ncn(CC3(C)CCC3)n2)CCn2nc(C3CC3)cc21 [Example 561] | 100 nM |
| CCCC1(C)OCc2cnc(C(=O)N[C@H]3CCn4nc(C)cc4N(C)C3=O)nc21 (stereo partly drawn) [Example 564, 7-methyl-7-propyl-N-[(6S)-2,4-dimethyl-5-oxo-7,8-dihydro-6H-pyrazolo[1,5-a][1,3]diazepin-6-yl]-5H-furo[3,4-d]pyrimidine-2-carboxamide] | 590 nM |
| CN1C(=O)[C@@H](NC(=O)c2ncc3c(n2)C2(CCCC2)OC3)CCn2nccc21 [Example 565, N-[(6S)-4-methyl-5-oxo-7,8-dihydro-6H-pyrazolo[1,5-a][1,3]diazepin-6-yl]spiro[5H-furo [3,4-d]pyrimidine-7,1′-cyclopentane]-2-carboxamide] | 70 nM |
| Cc1cc2n(n1)CC[C@H](NC(=O)c1nc3n(n1)CCOC31CCCC1)C(=O)N2C [Example 567, N-[(6S)-2,4-dimethyl-5-oxo-7,8-dihydro-6H-pyrazolo[1,5-a][1,3]diazepin-6-yl]spiro[5,6-dihydro-[1,2,4]triazolo[5,1-c][1,4]oxazine-8,1′-cyclopentane]-2-carboxamide] | 410 nM |
| CN1C(=O)[C@@H](NC(=O)c2nc3c(-c4ccccc4)cccn3n2)COc2ccccc21 [Example 568, 8-phenyl-N-[(3S)-5-methyl-4-oxo-2,3-dihydro-1,5-benzoxazepin-3-yl]-[1,2,4]triazolo[1,5-a]pyridine-2-carboxamide] | 8.1 nM |
| CN1C(=O)[C@@H](NC(=O)c2ncn(Cc3ccccc3)n2)CCn2nc(C3(F)CC3)cc21 [Example 570, 1-benzyl-N-(6S)-2-(1-fluorocyclopropyl)-4-methyl-5-oxo-7,8-dihydro-6H-pyrazolo[1,5-a][1,3]diazepin-6-yl-1,2,4-triazole-3-carboxamide] | 24 nM |
| CN1C(=O)[C@@H](NC(=O)c2nc3n(n2)CCC3c2ccccc2)COc2ccccc21 (stereo partly drawn) [Example 571, 7-phenyl-N-[(3S)-5-methyl-4-oxo-2,3-dihydro-1,5-benzoxazepin-3-yl]-6,7-dihydro-5H-pyrrolo[1,2-b][1,2,4]triazole-2-carboxamide] | 23 nM |
| CN1C(=O)[C@@H](NC(=O)c2nc3n(n2)CC[C@@H]3c2ccccc2)COc2ccccc21 [Example 573, (7R)-7-phenyl-N-[(3S)-5-methyl-4-oxo-2,3-dihydro-1,5-benzoxazepin-3-yl]-6,7-dihydro-5H-pyrrolo[1,2-b][1,2,4]triazole-2-carboxamide] | 17 nM |
| Cc1ncc2n1CC[C@@H](NC(=O)c1ncn(Cc3ccccc3F)n1)C(=O)N2C [Example 576, 1-[(2-fluorophenyl)methyl]-N-(3R)-1,7-dimethyl-2-oxo-4,5-dihydro-3H-imidazo[1,5-a][1, 3]diazepin-3-yl-1,2,4-triazole-3-carboxamide] | 40 nM |
| Cc1ncc2n1CC[C@@H](NC(=O)c1ncn(Cc3cc(F)ccc3F)n1)C(=O)N2C [Example 577, 1-[(2,5-difluorophenyl)methyl]-N-(3R)-1,7-dimethyl-2-oxo-4,5-dihydro-3H-imidazo[1,5-a][1,3]diazepin-3-yl-1,2,4-triazole-3-carboxamide] | 80 nM |
| Cc1cc2n(n1)CC[C@H](NC(=O)c1ncn(Cc3ccccc3C(F)(F)F)n1)C(=O)N2C [Example 584, N-(6S)-2,4-dimethyl-5-oxo-7,8-dihydro-6H-pyrazolo[1,5-a][1,3]diazepin-6-yl-1-[[2-(trifluoromethyl)phenyl]methyl]-1,2,4-triazole-3-carboxamide] | 25 nM |
| Cc1cc2n(n1)CC[C@H](NC(=O)c1ncn(Cc3ccccc3)n1)C(=O)N2 [Example 586] | 63 nM |
| COc1ccccc1Cn1cnc(C(=O)N[C@H]2CCn3nccc3N(C)C2=O)n1 [Example 587, 1-[(2-methoxyphenyl)methyl]-N-(6S)-4-methyl-5-oxo-7,8-dihydro-6H-pyrazolo[1,5-a][1, 3]diazepin-6-yl-1,2,4-triazole-3-carboxamide] | 47 nM |
| Cc1ccccc1Cn1cnc(C(=O)N[C@H]2CCn3nccc3N(C)C2=O)n1 [Example 588, 1-(o-tolylmethyl)-N-(6S)-4-methyl-5-oxo-7,8-dihydro-6H-pyrazolo[1,5-a][1,3]diazepin-6-yl-1,2,4-triazole-3-carboxamide] | 13 nM |
| COc1ccccc1Cn1cnc(C(=O)N[C@H]2CCn3nc(C)cc3N(C)C2=O)n1 [Example 589, 1-[(2-methoxyphenyl)methyl]-N-(6S)-2,4-dimethyl-5-oxo-7,8-dihydro-6H-pyrazolo[1,5-a][1,3]diazepin-6-yl-1,2,4-triazole-3-carboxamide] | 48 nM |

Continued, values first:

| Ki | Structure (SMILES) |
| --- | --- |
| 2700 nM | CN1C(=O)[C@@H](NC(=O)c2ncc3c(n2)C(C)(C)S(=O)(=O)C3)COc2ccccc21 [Example 556, 7,7-dimethyl-6,6-dioxo-N-[(3S)-5-methyl-4-oxo-2,3-dihydro-1,5-benzoxazepin-3-yl]-5H-thieno[3,4-d]pyrimidine-2-carboxamide] |
| 20 nM | CN1C(=O)[C@@H](NC(=O)c2nc3n(n2)CCOC32CCCC2)COc2ccccc21 [Example 562, N-[(3S)-5-methyl-4-oxo-2,3-dihydro-1,5-benzoxazepin-3-yl]spiro[5,6-dihydro-[1,2,4]triazolo[5,1-c][1,4]oxazine-8,1′-cyclopentane]-2-carboxamide] |
| 54 nM | CN1C(=O)[C@@H](NC(=O)c2ncc3cnn(C4CCCOC4)c3n2)COc2ccccc21 (stereo partly drawn) [Example 563, N-[(3S)-5-methyl-4-oxo-2,3-dihydro-1,5-benzoxazepin-3-yl]-1-tetrahydropyran-3-yl-pyrazolo[3,4-d]pyrimidine-6-carboxamide] |
| 480 nM | CCCC1(C)OCc2cnc(C(=O)N[C@H]3CCn4nccc4N(C)C3=O)nc21 (stereo partly drawn) [Example 566, 7-methyl-7-propyl-N-[(6S)-4-methyl-5-oxo-7,8-dihydro-6H-pyrazolo[1,5-a][1,3]diazepin-6-yl]-5H-furo[3,4-d]pyrimidine-2-carboxamide] |
| 580 nM | Cc1cc2n(n1)CC[C@H](NC(=O)c1ncn(CC3CCC(F)(F)C3)n1)C(=O)N2C (stereo partly drawn) [Example 569, 1-[(3,3-difluorocyclopentyl)methyl]-N-(6S)-2,4-dimethyl-5-oxo-7,8-dihydro-6H-pyrazolo[1,5-a][1,3]diazepin-6-yl-1,2,4-triazole-3-carboxamide] |
| 450 nM | CN1C(=O)[C@@H](NC(=O)c2nc3n(n2)CC[C@H]3c2ccccc2)COc2ccccc21 [Example 572, (7S)-7-phenyl-N-[(3S)-5-methyl-4-oxo-2,3-dihydro-1,5-benzoxazepin-3-yl]-6,7-dihydro-5H-pyrrolo[1,2-b][1,2,4]triazole-2-carboxamide] |
| 58 nM | Cc1cc2n(n1)CC[C@H](NC(=O)c1nc3n(n1)CCC3c1ccccc1)C(=O)N2C (stereo partly drawn) [Example 574, 7-phenyl-N-[(6S)-2,4-dimethyl-5-oxo-7,8-dihydro-6H-pyrazolo[1,5-a][1,3]diazepin-6-yl]-6,7-dihydro-5H-pyrrolo[1,2-b][1,2,4]triazole-2-carboxamide] |
| 40 nM | Cc1ncc2n1CC[C@@H](NC(=O)c1ncn(Cc3c(F)cccc3F)n1)C(=O)N2C [Example 578, 1-[(2,6-difluorophenyl)methyl]-N-[(3R)-1,7-dimethyl-2-oxo-4,5-dihydro-3H-imidazo[1,5-a][1,3]diazepin-3-yl]-1,2,4-triazole-3-carboxamide] |
| 37 nM | CN1C(=O)[C@@H](NC(=O)c2nc3n(n2)CCC3c2ccccc2)CCn2nccc21 (stereo partly drawn) [Example 579, 7-phenyl-N-[(6S)-4-methyl-5-oxo-7,8-dihydro-6H-pyrazolo[1,5-a][1,3]diazepin-6-yl]-6,7-dihydro-5H-pyrrolo[1,2-b][1,2,4]triazole-2-carboxamide] |
| 54 nM | Cc1ncn2c1N(C)C(=O)[C@H](NC(=O)c1ncn(Cc3ccccc3F)n1)CC2 [Example 580, 1-[(2-fluorophenyl)methyl]-N-[(3R)-1,9-dimethyl-2-oxo-4,5-dihydro-3H-imidazo[1,5-a][1,3]diazepin-3-yl]-1,2,4-triazole-3-carboxamide] |
| 47 nM | Cc1ncn2c1N(C)C(=O)[C@H](NC(=O)c1ncn(Cc3c(F)cccc3F)n1)CC2 [Example 581, 1-[(2,6-difluorophenyl)methyl]-N-(3R)-1,9-dimethyl-2-oxo-4,5-dihydro-3H-imidazo[1,5-a][1,3]diazepin-3-yl-1,2,4-triazole-3-carboxamide] |
| 7.6 nM and 43 nM | CN1C(=O)[C@@H](NC(=O)c2ncn(Cc3ccccc3Cl)n2)CCn2nccc21 [Example 582, 1-[(2-chlorophenyl)methyl]-N-(6S)-4-methyl-5-oxo-7,8-dihydro-6H-pyrazolo[1,5-a][1,3]diazepin-6-yl-1,2,4-triazole-3-carboxamide] |
| 24 nM | CN1C(=O)[C@@H](NC(=O)c2ncn(Cc3ccccc3C(F)(F)F)n2)CCn2nccc21 [Example 583, N-(6S)-4-methyl-5-oxo-7,8-dihydro-6H-pyrazolo[1,5-a][1,3]diazepin-6-yl]-1-[[2-(trifluoromethyl)phenyl]methyl-1,2,4-triazole-3-carboxamide] |
